How the values were obtained:
Yap1 mRNA [1] = experiment: Dose-dependent inhibition of human Yap1 in SNU-449 cells (Example 9, RTS36584); assay type: cell-based; conditions: free uptake; for % UTC (Yap1 mRNA): approximately 48 hours; for IC50: linear regression on a log/linear plot
Summary of the method: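 SNU-449 cells (10,000/well) took up modified oligonucleotides by free uptake at a range of doses for about 48 h. Yap1 mRNA was quantified with primer-probe set RTS36584, normalised to RIBOGREEN total RNA and expressed as % untreated control; IC50 from linear regression on log/linear plot.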

[2] = Tolerability in Sprague-Dawley rats, plasma chemistry markers (Example 22); assay type: in vivo; conditions: male Sprague-Dawley rats, 50 mg/kg s.c. weekly for 6 weeks (7 doses), 48 hours after last dose
Description: Sprague-Dawley rats are a multipurpose model used for safety and efficacy evaluations. The rats were treated with Ionis modified oligonucleotides from the studies described in the Examples above and evaluated for changes in the levels of various plasma chemistry markers.

Yap1 mRNA [3] = experiment: Dose-dependent inhibition of human Yap1 in A-431 cells (Example 24, 11,000 cells per well, RTS36584, normalized to GAPDH); assay type: cell-based; conditions: free uptake, 48 hours; for Yap1 mRNA, % UTC: RTS36584, normalized to GAPDH; for IC50: linear regression on a log/linear plot
Description: Modified oligonucleotides described in the studies above were tested at various doses in A-431 cells. Cultured A-431 cells at a density of 11,000 cells per well were treated using free uptake with modified oligonucleotides diluted to concentrations described in the tables below. After approximately 48 hours, Yap1 mRNA levels were measured as previously described using the Human Yap1 primer-probe set RTS36584. Yap1 mRNA levels were normalized to GAPDH content, as measured by primer probe set RTS104 (forward sequence […], designated herein as SEQ ID NO.: 17; reverse sequence […], designated herein as SEQ ID NO.: 18; probe sequence […], designated herein as SEQ ID NO.: 19). Results are presented in the tables below as percent control of the amount of Yap1 mRNA relative to untreated control cells (% UTC). IC50s were calculated using a linear regression on a log/linear plot of the data in excel.

Yap1 mRNA [4] = experiment: Inhibition of human Yap1 mRNA in epidermoid carcinoma A-431 xenograft tumors (Example 27); assay type: in vivo; conditions: A-431 xenografts in NCr-Foxn1nu mice, 6-8 hours post final dose, relative to PBS
Description: An epidermoid carcinoma A-431 xenograft tumor model was used to evaluate activity of modified oligonucleotides targeted to human Yap1. Five million A-431 cells in 30% matrigel were implanted subcutaneously into the flanks of female NCr-Foxn1nu mice (from Taconic) at 4-6 weeks of age. When tumors reached an average volume of 40 mm^3, approximately two weeks post-implantation, groups of four mice each were administered at either 25 mg/kg or 50 mg/kg daily with modified oligonucleotides for […] (5 doses). Tumors were collected 6-8 hours post final dose and tested for Yap1 mRNA knockdown by RT-qPCR. Yap1 mRNA levels were measured as previously described using the Human Yap1 primer-probe set RTS4814. Yap1 mRNA levels were normalized to actin-beta content, as measured by primer probe set RTS5002. Results are presented in the tables below as percent control of the amount of Yap1 mRNA relative to PBS treated animals (% control).

Yap1 mRNA [5] = experiment: Inhibition of human Yap1 mRNA in squamous cell carcinoma CAL27 xenograft tumors (Example 28); assay type: in vivo; conditions: CAL27 xenografts in NCr-Foxn1nu mice, relative to PBS treated
Description: A squamous cell carcinoma CAL27 xenograft tumor model was used to evaluate activity of modified oligonucleotides targeted to human Yap1. Five million CAL27 cells in 30% matrigel were implanted subcutaneously into the flanks of female CrTac:NCr-Foxn1nu mice (from Taconic) at 4-6 weeks of age. Groups of four mice each were administered with either 15 mg/kg or 30 mg/kg of modified oligonucleotides daily for five days after tumor size had reached ˜100 mm^3 (about 3 weeks post implantation). Tumors were collected and tested for Yap1 mRNA knockdown by RT-qPCR. Yap1 mRNA levels were measured as previously described using the Human Yap1 primer-probe set RTS4814. Yap1 mRNA levels were normalized to actin-beta content, as measured by primer probe set RTS5002. Results are presented in the tables below as percent control of the amount of Yap1 mRNA relative to PBS treated […].

[6] = Cynomolgus monkey tolerability, pro-inflammatory proteins analysis, Complement C3 and CRP (Example 34); assay type: in vivo; conditions: cynomolgus monkeys, 35 mg/kg subcutaneously; for CRP: day 44
Description: To evaluate any inflammatory effect of Ionis oligonucleotides in cynomolgus monkeys, blood samples were taken for analysis. The monkeys were fasted overnight prior to blood collection. On day 42 (pre-dose and 24 hours post-dose), approximately 0.8 mL of blood was collected from each animal and put into tubes without anticoagulant for serum separation. […] Complement C3 were measured using a Toshiba 120 FR NEO chemistry analyzer (Toshiba Co., Japan). […] Another marker of inflammation, C-Reactive Protein (CRP) was tested together with the clinical chemistry parameters tested for liver function above.

[7] = Cynomolgus monkey tolerability, coagulation (Example 34); assay type: in vivo; conditions: cynomolgus monkeys, 35 mg/kg subcutaneously, day 44
Description: To evaluate effect of Ionis modified oligonucleotides on coagulation in cynomolgus monkeys, blood samples of approximately 0.9 mL were collected from each of the available study animals on day 44. The samples were collected in tubes containing 3.2% sodium citrate. Coagulation parameters tested include Activated partial thromboplastin time (APTT), prothrombin time (PT) and Figrinogen (FIB).

[8] = cynomolgus monkey, in vivo, sc, 35 mg/kg
[9] = Cynomolgus monkey tolerability, urine analysis (Example 34); conditions: cynomolgus monkeys, 35 mg/kg subcutaneously, day 44
Description: Prior to the study, the monkeys were kept in quarantine during which the animals were observed daily for general health. The monkeys were 2-4 years old and weighed 2-4 kg. Eleven groups of 4 randomly assigned male cynomolgus monkeys each were injected subcutaneously with Ionis oligonucleotide or saline in a clock-wise rotation between four different sites on the back. Following loading doses on days 1, 3, 5 and 7, the monkeys were dosed once per week (on days 14, 21, 28, 35, and 42) with 35 mg/kg of Ionis oligonucleotide.
Food was removed overnight the day before fresh urine collection, but water was supplied. Fresh urine samples for urinalysis and urine chemistry were collected from all animals using a clean cage pan on wet ice (first in the morning) on day 44. Urinalysis/Urine Chemistry parameters creatinine (UCRE), microprotein (UTP), urine microalbumin (UALB), and protein/creatinine (P/C) ratio were measured using a Toshiba 120FR automated chemistry analyzer (Toshiba Co., Japan).

Substance	% UTC (Yap1 mRNA) (Yap1 mRNA [1]; 31.3 nM)	% UTC (Yap1 mRNA) (Yap1 mRNA [1]; 125.0 nM)	% UTC (Yap1 mRNA) (Yap1 mRNA [1]; 500.0 nM)	% UTC (Yap1 mRNA) (Yap1 mRNA [1]; 2000.00 nM)	IC50 (Yap1 mRNA [1])	ALT [2]	AST [2]	BUN [2]	TBIL [2]	Yap1 mRNA, % UTC (Yap1 mRNA [3]; 0.002 μM)	Yap1 mRNA, % UTC (Yap1 mRNA [3]; 0.008 μM)	Yap1 mRNA, % UTC (Yap1 mRNA [3]; 0.04 μM)	Yap1 mRNA, % UTC (Yap1 mRNA [3]; 0.2 μM)	Yap1 mRNA, % UTC (Yap1 mRNA [3]; 1 μM)	Yap1 mRNA in tumors, % control (Yap1 mRNA [4]; 25 mpk daily (5 doses))	Yap1 mRNA in tumors, % control (Yap1 mRNA [4]; 50 mpk daily (5 doses))	Yap1 mRNA in tumors, % UTC (Yap1 mRNA [5]; 15 mg/kg daily for five days)	Yap1 mRNA in tumors, % UTC (Yap1 mRNA [5]; 30 mg/kg daily for five days)	Complement C3 ([6]; Day 42 (pre-dose))	Complement C3 ([6]; day 42 (24 hr post-dose))	other results
1197270 (TTAAAGTGTATGTCAG; cEt gapmer with 2'-OMe nucleoside, phosphorothioate, further chemistry not given here) [compound 1197270]	43 % UTC	23 % UTC	8 % UTC	2 % UTC	< 30 nM	84 U/L	120 U/L	24 mg/dL	0.19 mg/dL	0 % UTC	2 % UTC	26 % UTC	80 % UTC	99 % UTC	57 % control	38 % control	55 % UTC	38 % UTC	103 mg/dL	86 mg/dL	IC50 (Yap1 mRNA [3]): 20 nM; CRP [6]: 9.8 mg/L; APTT [7]: 17 s; FIB [7]: 257 mg/dL; PT [7]: 10 s; A/G ratio [8]: 1.2; UALB [9]: 1.3 mg/dL; UCRE [9]: 56 mg/dL; UTP [9]: 18 mg/dL
1198605 (GTAATATTGCAATCTG; modified gapmer, further chemistry not given here) [compound 1198605]	57 % UTC	27 % UTC	7 % UTC	1 % UTC	30 nM	46 U/L	76 U/L	18 mg/dL	0.33 mg/dL	0 % UTC	2 % UTC	26 % UTC	57 % UTC	96 % UTC	32 % control	30 % control	65 % UTC	48 % UTC	105 mg/dL	95 mg/dL	IC50 (Yap1 mRNA [3]): 20 nM; CRP [6]: 4.2 mg/L; APTT [7]: 23 s; FIB [7]: 236 mg/dL; PT [7]: 9 s; A/G ratio [8]: 1.5; UALB [9]: 0.4 mg/dL; UCRE [9]: 69 mg/dL; UTP [9]: 12 mg/dL
1198623 (CTAAGTAAGGTTTCCC; modified gapmer, further chemistry not given here) [compound 1198623]	48 % UTC	24 % UTC	5 % UTC	1 % UTC	< 30 nM	96 U/L	87 U/L	21 mg/dL	0.24 mg/dL	2 % UTC	5 % UTC	28 % UTC	72 % UTC	96 % UTC	43 % control	36 % control	52 % UTC	44 % UTC	105 mg/dL	101 mg/dL	CRP [6]: 2.0 mg/L; APTT [7]: 17 s; FIB [7]: 229 mg/dL; PT [7]: 10 s; A/G ratio [8]: 1.4; UALB [9]: 0.2 mg/dL; UCRE [9]: 44 mg/dL; UTP [9]: 10 mg/dL
